The results in this text go back to patent publication EP4775582A1, “MACROCYCLIC COMPOUND AND ANTIBODY-DRUG CONJUGATE THEREOF” (Genfleet Therapeutics (Shanghai) Inc., priority 2023, dated 2025).

Broadly, the Solubility is the concentration that dissolves in the medium under given conditions. Higher therefore signals a readily soluble substance. Usually solubility stands for the concentration that dissolves in the medium under given conditions. Read a high solubility as much dissolved substance.

This data set in a line: Solubility experiment (HPLC, external standard). In kind it is physicochemical. The conditions noted are these: 37 °C, 24 h; for Solubility at pH 7.4 (µg/mL): pH 7.4 medium; for solubility at 24 h: ph 7.4 medium, pH 7.4, pH 7.4 medium. As for the experimental part:
This experiment was intended to determine the solubility of the compounds in media at different pH values. The materials used in the experiment included: a pH 1.2 medium, a pH 4.5 medium, a pH 7.4 medium, and a diluent (acetonitrile/water = 50/50). 1. The preparation methods for media are as follows:
One centrifuge tube (containing about 2 mg of the test sample) was taken, 1 mL of DMSO was added to completely dissolve the test sample, and the mixture was marked as stock-1. 0.2 mL of stock-1 was transferred into a 10 mL volumetric flask, and then the 50:50 (acetonitrile/water) solution was added to bring the volume to the mark, so as to give a control solution.
Additionally, centrifuge tubes each containing about 1 mg of the test sample were taken, 1 mL of the corresponding medium solution was then added, and the tubes were shaken on a 37 °C water bath shaker for 24 h. After centrifugation for 3 times (centrifugation time: 10 min, rotation speed: 12000 rpm), 0.2 mL of the supernatants were taken, 0.8 mL of the diluent (acetonitrile/water = 50/50) was added to each tube, and the mixtures were vortexed and mixed well to give solubility samples.
The solubility samples described above and the control solution were sequentially analyzed by high performance liquid chromatography. The chromatographic conditions are as follows:
The actual concentration of the compound in each solubility sample was calculated according to an external standard method. Concentration (μg/mL) = (ASample × CControl × DSample)/(AControl)∗1000; [formula] Asample: the peak area of the target peak in the sample solution; Ccontrol: the concentration (mg/mL) of the control solution; Dsample: the dilution factor of the sample solution; Acontrol: the peak area of the target peak in the control solution.

Converted amounts (≈) assume the structure as drawn.

With `CCn1c(-c2cc(C#CCN3CCS(=O)(=O)CC3)cnc2[C@H](C)NC)c2c3cc(ccc31)-c1csc(n1)C[C@H](NC(=O)[C@H]1[C@H](C)[C@@H]1C)C(=O)N1CCC[C@H](N1)C(=O)OCC(C)(C)C2` (atropisomer, axis not shown; (Sa)) [Compound Z66-1, (1r,2R,3S)-N-((6^3S,4S,Z)-(Sa)-1^2-(5-(3-(1,1-dioxidothiomorpholino)prop-1-yn-1-yl)-2-((S)-1-(methylamino)ethyl)pyridin-3-yl)-11-ethyl-10,10-dimethyl-5,7-dioxo-6^1,6^2,6^3,6^4,6^5,6^6-hexahydro-1^1H-8-oxa-2(4,2)-thiazola-1(5,3)-indola-6(1,3)-pyridazinacycloundecaphane-4-yl)-2,3-dimethylcyclopropane-1-carboxamide], the “Solubility at pH 7.4 (µg/mL)” value was found to be 158.5 µg/mL. With `COCCn1c(-c2cc(C#CCN3CCN(C(=O)CO)CC3)c[n+]([O-])c2[C@H](C)OC)c2c3cc(ccc31)-c1csc(n1)C[C@H](NC(=O)[C@H]1[C@@H]3COC[C@@H]31)C(=O)N1CCC[C@H](N1)C(=O)OCC(C)(C)C2` (atropisomer, axis not shown; (Sa)) [Compound Z38-2, (Sa)-3-((6^3S,4S,Z)-4-((1R,5S,6r)-3-oxabicyclo[3.1.0]hexane-6-carboxamido)-1^1-(2-methoxyethyl)-10,10-dimethyl-5,7-dioxo-6^1,6^2,6^3,6^4,6^5,6^6-hexahydro-11H-8-oxa-2(4,2)-thiazola-1(5,3)-indola-6(1,3)-pyridazinacycloundecaphane-1^2-yl)-5-(3-(4-(2-hydroxyacetyl)piperazin-1-yl)prop-1-yn-1-yl)-2-((S)-1-methoxyethyl)pyridine-1-oxide], the concentration in solution (solubility at 24 h) was 176 µg/mL (≈ 182 µM). As to `CCn1c(-c2cc(C#CCN3CCC(C#N)(CO)CC3)c[n+]([O-])c2[C@H](C)OC)c2c3cc(ccc31)-c1csc(n1)C[C@H](NC(=O)[C@H]1[C@H](C)[C@@H]1C)C(=O)N1CCC[C@H](N1)C(=O)OCC(C)(C)C2` (atropisomer, axis not shown; (Sa)) [Compound Z45-2, 5-(3-(4-cyano-4-(hydroxymethyl)piperidin-1-yl)prop-1-yn-1-yl)-(Sa)-3-((6^3S,4S,Z)-4-((1r,2R,3S)-2,3-dimethylcyclopropane-1-carboxamido)-1^1-ethyl-10,10-dimethyl-5,7-dioxo-6^1,6^2,6^3,6^4,6^5,6^6-hexahydro-1^1H-8-oxa-2(4,2)-thiazola-1(5,3)-indola-6(1,3)-pyridazinacycloundecaphane-1^2-yl)-2-((S)-1-methoxyethyl)pyridine 1-oxide], the “Solubility at pH 7.4 (µg/mL)” value (1440 min) was determined as 8.42 µg/mL. `COCCn1c(-c2cc(C#CCN3CCN(C(=O)CO)CC3)cnc2[C@H](C)OC)c2c3cc(ccc31)-c1csc(n1)C[C@H](NC(=O)[C@H]1[C@@H]3COC[C@@H]31)C(=O)N1CCC[C@H](N1)C(=O)OCC(C)(C)C2` (atropisomer, axis not shown; (Sa)) [Compound Z31-2, (1R,5S,6r)-N-((6^3S,4S,Z)-(Sa)-1^2-(5-(3-(4-(2-hydroxyacetyl)piperazin-1-yl)prop-1-yn-1-yl)-2-((S)-1-methoxyethyl)pyridin-3-yl)-1^1-(methoxyethyl)-10,10-dimethyl-5,7-dioxo-6^1,6^2,6^3,6^4,6^5,6^6-hexahydro-1^1H-8-oxa-2(4,2)-thiazola-1(5,3)-indola-6(1,3)-pyridazinacycloundecaphane-4-yl)-3-oxabicyclo[3.1.0]hexane-6-carboxamide]: the solubility at 24 h turned out to be 22 µg/mL (≈ 23.1 µM).
